Measured values from doi:10.1101/2020.06.11.145995v1 (biorxiv, 2020).
Like-named read-outs stand apart in the source and are kept apart here.

How the values were obtained:
Test in all cases: biochemical
FLT3-autoinhibited = FLT3-autoinhibited (Homo sapiens, UniProt P36888); conditions: read-out: CPT-1-70-1 (1uM) % control
ERBB3 = ERBB3 (Homo sapiens, UniProt P21860); conditions: read-out: CPT-1-70-1 (1uM) % control
EPHB6 = EPHB6 (Homo sapiens, UniProt O15197); conditions: read-out: CPT-1-70-1 (1uM) % control
HASPIN = HASPIN (Homo sapiens, UniProt Q8TF76); conditions: read-out: CPT-1-70-1 (1uM) % control
EPHB3 = EPHB3 (Homo sapiens, UniProt P54753); conditions: read-out: CPT-1-70-1 (1uM) % control
ERBB2 = ERBB2 (Homo sapiens, UniProt P04626); conditions: read-out: CPT-1-70-1 (1uM) % control
EPHB4 = EPHB4 (Homo sapiens, UniProt P54760); conditions: read-out: CPT-1-70-1 (1uM) % control
EIF2AK1 = EIF2AK1 (Homo sapiens, UniProt Q9BQI3); conditions: read-out: CPT-1-70-1 (1uM) % control
EPHA4 = EPHA4 (Homo sapiens, UniProt P54764); conditions: read-out: CPT-1-70-1 (1uM) % control
ALK(L1196M) = ALK(L1196M) (Homo sapiens, UniProt Q9UM73, L1196M); conditions: read-out: CPT-1-70-1 (1uM) % control
BUB1 = BUB1 (Homo sapiens, UniProt O43683); conditions: read-out: CPT-1-70-1 (1uM) % control
EPHB2 = EPHB2 (Homo sapiens, UniProt P29323); conditions: read-out: CPT-1-70-1 (1uM) % control
EPHA6 = EPHA6 (Homo sapiens, UniProt Q9UF33); conditions: read-out: CPT-1-70-1 (1uM) % control
ERK1 = ERK1 (Homo sapiens, UniProt P27361); conditions: read-out: CPT-1-70-1 (1uM) % control
EPHA3 = EPHA3 (Homo sapiens, UniProt P29320); conditions: read-out: CPT-1-70-1 (1uM) % control
ALK(C1156Y) = ALK(C1156Y) (Homo sapiens, UniProt Q9UM73, C1156Y); conditions: read-out: CPT-1-70-1 (1uM) % control
EPHA2 = EPHA2 (Homo sapiens, UniProt P29317); conditions: read-out: CPT-1-70-1 (1uM) % control
ERK8 = ERK8 (Homo sapiens, UniProt Q8TD08); conditions: read-out: CPT-1-70-1 (1uM) % control
ERK3 = ERK3 (Homo sapiens, UniProt Q16659); conditions: read-out: CPT-1-70-1 (1uM) % control
ERBB4 = ERBB4 (Homo sapiens, UniProt Q15303); conditions: read-out: CPT-1-70-1 (1uM) % control
EPHA5 = EPHA5 (Homo sapiens, UniProt P54756); conditions: read-out: CPT-1-70-1 (1uM) % control
ERK4 = ERK4 (Homo sapiens, UniProt P31152); conditions: read-out: CPT-1-70-1 (1uM) % control
[1] = target: ABL1(F317I)-phosphorylated (Homo sapiens, UniProt P00519, F317I)
[2] = target: ABL1(E255K)-phosphorylated (Homo sapiens, UniProt P00519, E255K); conditions: read-out: CPT-1-70-1 (1μM) % control
PFPK5(P.falciparum) = PFPK5(P.falciparum) (Plasmodium falciparum, UniProt P61075); conditions: read-out: CPT-1-70-1 (1μM) % control
PFCDPK1(P.falciparum) = PFCDPK1(P.falciparum) (Plasmodium falciparum, UniProt P62344); conditions: read-out: CPT-1-70-1 (1μM) % control
PKNB(M.tuberculosis) = PKNB(M.tuberculosis) (Mycobacterium tuberculosis, UniProt P9WI81); conditions: read-out: CPT-1-70-1 (1μM) % control
KIT(V559D,V654A) = KIT(V559D,V654A) (Homo sapiens, UniProt P10721, V559D/V654A)
[3] = target: JAK1(JH2domain-pseudokinase) (Homo sapiens, UniProt P23458)
[4] = read-out: CPT-1-70-1 (1uM) % control
[5] = read-out: HYJ-2-002-1 (1uM) % control

Sequence of KIT(V559D,V654A) (P10721 whole entry V559D/V654A): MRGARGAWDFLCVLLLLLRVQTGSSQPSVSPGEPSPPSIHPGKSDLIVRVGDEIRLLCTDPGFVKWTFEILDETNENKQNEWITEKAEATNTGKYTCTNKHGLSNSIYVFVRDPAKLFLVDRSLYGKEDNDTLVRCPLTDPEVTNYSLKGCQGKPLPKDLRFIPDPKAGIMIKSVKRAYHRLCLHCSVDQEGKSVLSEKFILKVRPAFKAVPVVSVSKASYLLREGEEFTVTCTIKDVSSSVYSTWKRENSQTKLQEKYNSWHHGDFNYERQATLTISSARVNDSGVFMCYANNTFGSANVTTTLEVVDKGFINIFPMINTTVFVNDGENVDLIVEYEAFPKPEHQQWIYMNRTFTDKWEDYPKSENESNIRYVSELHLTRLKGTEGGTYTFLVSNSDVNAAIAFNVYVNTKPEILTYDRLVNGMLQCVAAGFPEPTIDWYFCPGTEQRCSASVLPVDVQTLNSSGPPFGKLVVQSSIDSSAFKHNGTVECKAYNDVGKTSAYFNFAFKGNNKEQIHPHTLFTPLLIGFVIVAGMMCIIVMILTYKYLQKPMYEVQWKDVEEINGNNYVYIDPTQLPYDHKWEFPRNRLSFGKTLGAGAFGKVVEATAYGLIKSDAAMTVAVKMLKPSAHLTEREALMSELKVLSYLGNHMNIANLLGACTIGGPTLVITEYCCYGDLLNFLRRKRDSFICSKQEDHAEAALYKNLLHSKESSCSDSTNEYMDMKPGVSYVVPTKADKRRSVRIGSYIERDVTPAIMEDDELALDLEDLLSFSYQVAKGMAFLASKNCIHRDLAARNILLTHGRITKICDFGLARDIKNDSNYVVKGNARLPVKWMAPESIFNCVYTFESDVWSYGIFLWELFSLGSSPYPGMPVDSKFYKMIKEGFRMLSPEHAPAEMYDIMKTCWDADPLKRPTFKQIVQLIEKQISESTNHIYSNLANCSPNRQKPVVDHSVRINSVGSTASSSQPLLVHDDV
Sequence of JAK1(JH2domain-pseudokinase) (P23458 whole entry): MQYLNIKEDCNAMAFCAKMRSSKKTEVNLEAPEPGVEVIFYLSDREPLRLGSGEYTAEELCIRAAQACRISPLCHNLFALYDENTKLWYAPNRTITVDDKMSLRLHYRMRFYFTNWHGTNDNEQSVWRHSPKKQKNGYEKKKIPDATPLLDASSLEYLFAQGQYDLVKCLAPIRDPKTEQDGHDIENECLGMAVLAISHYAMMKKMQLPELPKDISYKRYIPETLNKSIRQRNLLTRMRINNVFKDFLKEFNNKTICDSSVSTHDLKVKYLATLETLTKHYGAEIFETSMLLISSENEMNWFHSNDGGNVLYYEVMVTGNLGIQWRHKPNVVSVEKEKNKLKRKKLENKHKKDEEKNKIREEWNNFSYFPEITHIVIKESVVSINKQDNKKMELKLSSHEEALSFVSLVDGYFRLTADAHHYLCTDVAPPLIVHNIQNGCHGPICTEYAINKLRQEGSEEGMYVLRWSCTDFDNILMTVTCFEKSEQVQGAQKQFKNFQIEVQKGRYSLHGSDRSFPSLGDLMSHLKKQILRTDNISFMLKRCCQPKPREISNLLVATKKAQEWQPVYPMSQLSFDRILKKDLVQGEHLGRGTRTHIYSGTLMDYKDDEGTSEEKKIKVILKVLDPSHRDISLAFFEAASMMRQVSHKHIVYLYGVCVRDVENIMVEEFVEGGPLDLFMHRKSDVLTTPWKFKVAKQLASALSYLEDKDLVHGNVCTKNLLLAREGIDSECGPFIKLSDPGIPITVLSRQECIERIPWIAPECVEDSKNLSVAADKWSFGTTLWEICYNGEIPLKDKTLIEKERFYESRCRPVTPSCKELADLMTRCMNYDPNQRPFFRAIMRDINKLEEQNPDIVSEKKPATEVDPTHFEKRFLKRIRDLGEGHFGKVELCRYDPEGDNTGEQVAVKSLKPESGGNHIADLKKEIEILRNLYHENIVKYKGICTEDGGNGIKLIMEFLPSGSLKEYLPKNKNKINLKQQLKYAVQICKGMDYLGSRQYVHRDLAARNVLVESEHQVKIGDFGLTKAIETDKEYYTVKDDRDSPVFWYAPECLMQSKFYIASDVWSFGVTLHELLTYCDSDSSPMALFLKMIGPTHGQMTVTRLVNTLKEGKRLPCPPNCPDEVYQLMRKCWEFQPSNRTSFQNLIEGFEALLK
Sequence of ABL1(F317I)-phosphorylated (P00519 whole entry F317I): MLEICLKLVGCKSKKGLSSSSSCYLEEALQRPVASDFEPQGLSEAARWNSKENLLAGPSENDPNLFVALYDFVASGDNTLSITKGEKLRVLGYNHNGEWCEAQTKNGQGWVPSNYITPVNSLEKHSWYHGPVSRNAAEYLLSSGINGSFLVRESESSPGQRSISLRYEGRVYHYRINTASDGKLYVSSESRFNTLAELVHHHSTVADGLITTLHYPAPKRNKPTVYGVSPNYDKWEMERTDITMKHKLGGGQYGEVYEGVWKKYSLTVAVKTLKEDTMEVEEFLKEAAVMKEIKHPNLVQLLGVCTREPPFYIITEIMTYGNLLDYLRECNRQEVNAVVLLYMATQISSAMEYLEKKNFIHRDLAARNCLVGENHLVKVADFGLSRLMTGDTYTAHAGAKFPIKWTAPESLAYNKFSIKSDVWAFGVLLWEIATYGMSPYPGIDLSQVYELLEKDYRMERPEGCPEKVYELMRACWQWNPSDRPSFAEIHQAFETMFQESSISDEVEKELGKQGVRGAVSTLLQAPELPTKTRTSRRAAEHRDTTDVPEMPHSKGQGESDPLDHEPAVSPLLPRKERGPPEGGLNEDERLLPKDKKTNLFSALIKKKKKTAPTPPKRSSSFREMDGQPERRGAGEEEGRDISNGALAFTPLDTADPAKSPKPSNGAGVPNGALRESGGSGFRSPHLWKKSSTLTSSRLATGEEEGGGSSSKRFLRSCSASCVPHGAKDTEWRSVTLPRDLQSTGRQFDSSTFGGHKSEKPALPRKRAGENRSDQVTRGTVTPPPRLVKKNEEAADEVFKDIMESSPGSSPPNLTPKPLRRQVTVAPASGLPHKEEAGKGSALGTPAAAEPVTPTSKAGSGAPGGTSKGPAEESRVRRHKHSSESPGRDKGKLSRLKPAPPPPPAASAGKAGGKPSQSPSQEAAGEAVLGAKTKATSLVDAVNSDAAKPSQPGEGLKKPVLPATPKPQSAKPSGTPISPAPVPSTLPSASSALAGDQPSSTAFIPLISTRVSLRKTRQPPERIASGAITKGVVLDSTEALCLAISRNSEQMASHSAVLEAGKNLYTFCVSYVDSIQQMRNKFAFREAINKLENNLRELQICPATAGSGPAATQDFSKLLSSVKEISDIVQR
Sequence of PFCDPK1(P.falciparum) (P62344 whole entry): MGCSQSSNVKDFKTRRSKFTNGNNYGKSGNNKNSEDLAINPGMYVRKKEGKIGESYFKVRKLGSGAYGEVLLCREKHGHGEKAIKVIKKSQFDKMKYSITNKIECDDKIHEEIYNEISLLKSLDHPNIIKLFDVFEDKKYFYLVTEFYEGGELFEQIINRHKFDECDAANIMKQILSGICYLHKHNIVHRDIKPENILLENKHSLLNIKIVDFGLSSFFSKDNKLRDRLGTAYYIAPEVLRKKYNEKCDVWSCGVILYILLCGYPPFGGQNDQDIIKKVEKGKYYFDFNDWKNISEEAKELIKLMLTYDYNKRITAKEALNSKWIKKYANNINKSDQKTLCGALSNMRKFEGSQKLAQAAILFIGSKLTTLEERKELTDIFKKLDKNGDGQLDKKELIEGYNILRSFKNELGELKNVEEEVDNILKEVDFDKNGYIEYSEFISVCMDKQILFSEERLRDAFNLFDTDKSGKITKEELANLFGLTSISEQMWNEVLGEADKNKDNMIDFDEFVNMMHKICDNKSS
Sequence of HASPIN (Q8TF76 whole entry): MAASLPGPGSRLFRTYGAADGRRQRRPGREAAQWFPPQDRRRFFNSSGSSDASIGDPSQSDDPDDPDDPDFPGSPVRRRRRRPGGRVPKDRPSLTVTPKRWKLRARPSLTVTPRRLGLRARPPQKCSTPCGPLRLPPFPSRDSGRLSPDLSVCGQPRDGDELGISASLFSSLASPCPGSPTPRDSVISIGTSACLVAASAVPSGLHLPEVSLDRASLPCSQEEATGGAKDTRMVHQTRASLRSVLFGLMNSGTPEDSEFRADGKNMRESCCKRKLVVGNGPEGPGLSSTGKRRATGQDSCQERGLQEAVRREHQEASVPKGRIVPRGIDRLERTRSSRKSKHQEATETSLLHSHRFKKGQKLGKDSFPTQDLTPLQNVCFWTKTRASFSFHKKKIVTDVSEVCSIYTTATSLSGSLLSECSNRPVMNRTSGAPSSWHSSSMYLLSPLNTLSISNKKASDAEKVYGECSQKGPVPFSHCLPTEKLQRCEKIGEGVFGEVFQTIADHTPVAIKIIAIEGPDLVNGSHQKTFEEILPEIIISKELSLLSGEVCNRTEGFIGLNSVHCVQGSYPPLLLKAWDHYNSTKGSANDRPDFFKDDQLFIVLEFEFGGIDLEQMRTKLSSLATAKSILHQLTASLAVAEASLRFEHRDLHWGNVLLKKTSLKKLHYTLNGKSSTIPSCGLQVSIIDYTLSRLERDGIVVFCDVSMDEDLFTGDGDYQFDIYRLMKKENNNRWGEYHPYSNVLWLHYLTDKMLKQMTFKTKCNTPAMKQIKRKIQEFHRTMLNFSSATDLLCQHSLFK
Sequence of ERK1 (P27361 whole entry): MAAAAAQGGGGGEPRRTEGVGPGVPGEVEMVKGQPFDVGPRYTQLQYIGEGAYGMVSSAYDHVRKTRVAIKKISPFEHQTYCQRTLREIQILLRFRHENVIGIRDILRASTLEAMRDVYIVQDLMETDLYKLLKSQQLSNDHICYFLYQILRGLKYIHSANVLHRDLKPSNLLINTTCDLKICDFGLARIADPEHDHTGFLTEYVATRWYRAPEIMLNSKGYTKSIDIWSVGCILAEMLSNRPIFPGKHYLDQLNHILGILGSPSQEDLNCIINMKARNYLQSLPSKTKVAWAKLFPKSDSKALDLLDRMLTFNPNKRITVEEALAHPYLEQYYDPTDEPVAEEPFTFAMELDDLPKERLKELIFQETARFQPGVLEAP
Sequence of ABL1(E255K)-phosphorylated (P00519 whole entry E255K): as the sequence (P00519 whole entry F317I) above, with E255K, I317F counted along it

CN1CCN(c2ccc(Nc3nc(Oc4ccc(NC(=O)CCl)cc4)c4cc[nH]c4n3)cc2)CC1 [CPT1-70-1]
remaining activity at 1 µM (FLT3-autoinhibited): 38% | remaining activity at 1 µM (ERBB3): 53% | remaining activity at 1 µM (EPHB6): 44% | remaining activity at 1 µM (HASPIN): 100% | remaining activity at 1 µM (EPHB3): 100% | remaining activity at 1 µM (ERBB2): 57% | remaining activity at 1 µM (EPHB4): 100% | remaining activity at 1 µM (EIF2AK1): 100% | remaining activity at 1 µM (EPHA4): 94% | remaining activity at 1 µM (ALK(L1196M)): 100% | remaining activity at 1 µM (BUB1): 85% | remaining activity at 1 µM (EPHB2): 100% | remaining activity at 1 µM (EPHA6): 100% | remaining activity at 1 µM (ERK1): 100% | remaining activity at 1 µM (EPHA3): 100% | remaining activity at 1 µM (ALK(C1156Y)): 52% | remaining activity at 1 µM (EPHA2): 96% | remaining activity at 1 µM (ERK8): 86% | remaining activity at 1 µM (ERK3): 1% | remaining activity at 1 µM (ERBB4): 4.6% | remaining activity at 1 µM (EPHA5): 100% | remaining activity at 1 µM (ERK4): 96% | remaining activity at 1 µM [1, 4]: 100% | remaining activity at 1 µM [2]: 90% | remaining activity at 1 µM (PFPK5(P.falciparum)): 100% | remaining activity at 1 µM (PFCDPK1(P.falciparum)): 100% | remaining activity at 1 µM (PKNB(M.tuberculosis)): 58% | remaining activity at 1 µM (KIT(V559D,V654A); [4]): 100% | remaining activity at 1 µM [3, 4]: 0.75%

CCN1CCN(Cc2ccc(NC(=O)c3ccc(C)c(CCc4cnc5[nH]ccc5c4OC)c3)cc2C(F)(F)F)CC1 [HYJ-2-002-1]
remaining activity at 1 µM [1, 5]: 34% | remaining activity at 1 µM (KIT(V559D,V654A); [5]): 28% | remaining activity at 1 µM [3, 5]: 93%
